Data taken from publication PMC12527173, “Cytotoxic, anti-inflammatory, antioxidant, and anti-glyoxalase-I evaluation of chelating substances: In silico and in vitro study” (PLOS One, 2025).
Read-outs that look alike come from different tables or passages of the source.

Tests used:
[1] = test system: PANC1 pancreatic cell line; assay: SRB cytotoxicity assay, PANC1; assay type: cell-based; conditions: Homo sapiens, PANC-1, 72 h incubation, n = 12, read-out: Cytotoxicity (as of %Control) IC50 value PANC1
Protocol: (§1) The cancer cell lines were cultured in DMEM supplemented with 10% FBS (Bio Whittaker, Verviers, Belgium), HEPES Buffer (10 mM), gentamicin (50 µg/mL), L-glutamine (100 μg/mL), streptomycin ([…]), penicillin (100 µg/mL), and 4-(2-hydroxyethyl)-1-piperazineethanesulfonic acid (HEPES) Buffer (Sigma, St. Luis, MO, USA). The Sulforhodamine B used was obtained from Santa Cruz Biotechnology, Inc. in Texas, USA. […] Periodontal ligament fibroblasts (PDL) were utilized to assess specific cytotoxicity. Cancer cell lines that have survived offer several benefits. They provide a consistent and uninterrupted source of cells, so bypassing any ethical concerns related to the use of human tissue. Additionally, they are cost-effective. The cytotoxicity levels were assessed using the Sulforhodamine B (SRB) colorimetric assay, provided by Santa Cruz Biotechnology, Inc. in Texas, USA. The Spectro Scan 80D UV-VIS spectrophotometer, manufactured by Sedico Ltd. in Nicosia, Cyprus, was employed for this cytotoxicity screening. The cells were co-incubated with substances or a reference agent at various doses ranging from 5 to 200 μg/mL. […] The reduction in cell viability was analyzed by plotting Dose-response curves and expressing the data as a percentage of the control optical density. The IC50 values were obtained using regression analysis.

[2] = test system: HT-29 colorectal cancer cell line; assay: SRB cytotoxicity assay, HT29; assay type: cell-based; conditions: Homo sapiens, 72 h incubation, n = 12, read-out: Cytotoxicity (as of %Control) IC50 value HT29
Protocol: as §1

[3] = test system: Breast cancer cell line MCF7; assay: SRB cytotoxicity assay, MCF7; assay type: cell-based; conditions: Homo sapiens, 72 h incubation, n = 12, read-out: Cytotoxicity (as of %Control) IC50 value MCF7 mammary malignancy
Protocol: as §1

[4] = test system: HCT116 colorectal cancer cell line; assay: SRB cytotoxicity assay, HCT116; assay type: cell-based; conditions: Homo sapiens, HCT-116, 72 h incubation, n = 12, read-out: Cytotoxicity (as of %Control) IC50 value HCT116
Protocol: as §1

[5] = molecular target: T1, human recombinant Glo-I enzyme (rhGlo-I) (Homo sapiens, UniProt Q04760); assay: Glyoxalase-I (Glo-I) enzyme inhibition assay; assay type: biochemical; conditions: for Maximum (descriptive statistics of enzyme inhibition): highest mean inhibition over the tested concentrations; for Maximum (descriptive statistics of enzyme inhibition) / Minimum (descriptive statistics of enzyme inhibition): in % (unit assumed); for IC50: human recombinant Glo-I, triplicates, read-out: IC50 µM ± SD; for Minimum (descriptive statistics of enzyme inhibition): lowest mean inhibition over the tested concentrations
T1 construct: N-terminal Met and 6-His tag (N); purchased R&D Systems; host or cells: E. coli
T1 sequence (Q04760 2-184 limits assumed): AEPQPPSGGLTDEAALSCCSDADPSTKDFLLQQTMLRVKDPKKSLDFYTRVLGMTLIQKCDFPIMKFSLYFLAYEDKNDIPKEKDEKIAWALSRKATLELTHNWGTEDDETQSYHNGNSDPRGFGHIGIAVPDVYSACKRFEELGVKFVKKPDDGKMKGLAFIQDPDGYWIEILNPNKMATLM
Protocol: Solvents and chemicals were procured from Sigma-Aldrich Co. and Acros (ThermoFisher Scientific, New Jersey, USA). […] The enzyme was obtained from R&D Systems® Corporation in the USA. Synthetic compounds were tested for their inhibitory effects on the enzyme using a 10 mM DMSO stock concentration in triplicates. The manufacturer’s protocol from R & D Systems, Inc. in Minneapolis, MN, USA was followed for the in vitro experiments. The reconstituted Glo-I enzyme (0.5 mg/mL) was thawed after being stored at −70°C in sterile deionized water. […] The monitoring was done at a wavelength of 240 nm for 200 seconds at 37°C. The substrate mixture was freshly concocted with a concentration of 100 mM glutathione and 100 mM methylglyoxal (MG) in assay buffer containing 0.5 M sodium phosphate dibasic/monobasic. It was then left undisturbed at room temperature for 15 minutes […]. The selected compounds for investigation are subsequently produced in testing concentration ranges using a 0.1 M solution of sodium phosphate dibasic/monobasic with a pH range of 7–7.2. The blank contained an assay buffer with MG substrate. The test compounds were combined with human recombinant Glo-I (50 µM) in a 96-well plate to determine their kinetic behavior.

[6] = test system: CACO2 colorectal cancer cell line; assay: SRB cytotoxicity assay, CACO2; assay type: cell-based; conditions: Homo sapiens, Caco-2, 72 h incubation, n = 12, read-out: Cytotoxicity (as of %Control) IC50 value CACO2
Protocol: as §1

[7] = test system: T47D breast cancer cell line; assay: SRB cytotoxicity assay, T47D; assay type: cell-based; conditions: Homo sapiens, 72 h incubation, n = 12, read-out: Cytotoxicity (as of %Control) IC50 value T47D mammary malignancy
Protocol: as §1

[8] = test system: A375 human skin cancer cell line; assay: SRB cytotoxicity assay, A375; assay type: cell-based; conditions: A-375, 72 h incubation, n = 12, read-out: Cytotoxicity (as of %Control) IC50 value A375 skin melanoma
Protocol: as §1

[9] = test system: HeLa uterine cervix adenocarcinoma cell line; assay: SRB cytotoxicity assay, HeLa; assay type: cell-based; conditions: Homo sapiens, 72 h incubation, n = 12, read-out: Cytotoxicity (as of %Control) IC50 value Hela cervix malignancy
Protocol: as §1

[10] = test system: SW480 colorectal cancer cell line; assay: SRB cytotoxicity assay, SW480; assay type: cell-based; conditions: Homo sapiens, 72 h incubation, n = 12, read-out: Cytotoxicity (as of %Control) IC50 value SW480
Protocol: as §1

[11] = read-out: Trial one (%inhibtion)
[12] = read-out: Trial three (%inhibtion)
[13] = read-out: Trial two (%inhibtion)

C[C@]12CC[C@@H]3c4ccc(O)c(O)c4CC[C@H]3[C@@H]1CC[C@@H]2O [4-hydroxy-estradiol]
IC50 [1]: 66.9 ± 2.69 µM
IC50 [2]: 118 ± 4.17 µM
IC50 [3]: 139.8 ± 1.13 µM
IC50 [4]: 124 ± 7.8 µM
inhibition at 0.09765 µM [5, 11]: 18%
inhibition at 0.09765 µM [5, 12]: 20.6%
inhibition at 0.09765 µM [5, 13]: 21.7%
inhibition at 0.1953 µM [5, 11]: 57.6%
inhibition at 0.1953 µM [5, 12]: 59.2%
inhibition at 0.1953 µM [5, 13]: 55.5%
inhibition at 0.3906 µM [5, 11]: 69.7%
inhibition at 0.3906 µM [5, 12]: 66%
inhibition at 0.3906 µM [5, 13]: 67.1%
inhibition at 0.7812 µM [5, 11]: 80.8%
inhibition at 0.7812 µM [5, 12]: 81.3%
inhibition at 0.7812 µM [5, 13]: 82.9%
inhibition at 1.562 µM [5, 11]: 99.8%
inhibition at 1.562 µM [5, 12]: 94%
inhibition at 1.562 µM [5, 13]: 91.4%
inhibition at 3.125 µM [5, 11]: 93%
inhibition at 3.125 µM [5, 12]: 95.6%
inhibition at 3.125 µM [5, 13]: 96.1%
inhibition at 6.25 µM [5, 11]: 95.6%
inhibition at 6.25 µM [5, 12]: 96.1%
inhibition at 6.25 µM [5, 13]: 97.7%
inhibition at 12.5 µM [5, 11]: 99.8%
inhibition at 12.5 µM [5, 12]: 99.3%
inhibition at 12.5 µM [5, 13]: 98.7%
inhibition at 25 µM [5, 11]: 102%
inhibition at 25 µM [5, 12]: 104%
inhibition at 25 µM [5, 13]: 102%
inhibition at 50 µM [5, 11]: 102%
inhibition at 50 µM [5, 12]: 101%
inhibition at 50 µM [5, 13]: 101%
Maximum (descriptive statistics of enzyme inhibition) [5]: 102.5
IC50 [5]: 0.22 µM
Minimum (descriptive statistics of enzyme inhibition) [5]: 20.07
IC50 [6]: 107 ± 4.77 µM
IC50 [7]: 51.5 ± 5.2 µM
IC50 [8]: 47.1 ± 1.9 µM
IC50 [9]: 29.8 ± 4.74 µM
IC50 [10]: 109 ± 6.86 µM

O=c1cc(O)cc(/C=C/c2ccc(O)c(O)c2)o1 [Hispidin]
IC50 [1]: 130 ± 2.08 µM
IC50 [2]: 82.75 ± 0.78 µM
IC50 [3]: 384 ± 7.57 µM
IC50 [4]: 198 ± 12.2 µM
inhibition at 3.125 µM [5, 11]: 10.9%
inhibition at 3.125 µM [5, 12]: 20.2%
inhibition at 3.125 µM [5, 13]: 4.72%
inhibition at 6.25 µM [5, 11]: 19.1%
inhibition at 6.25 µM [5, 12]: 24%
inhibition at 6.25 µM [5, 13]: 10%
inhibition at 12.5 µM [5, 11]: 29.5%
inhibition at 12.5 µM [5, 12]: 34.3%
inhibition at 12.5 µM [5, 13]: 19.2%
inhibition at 25 µM [5, 11]: 47.9%
inhibition at 25 µM [5, 12]: 43.5%
inhibition at 25 µM [5, 13]: 32.4%
inhibition at 50 µM [5, 11]: 53.5%
inhibition at 50 µM [5, 12]: 54.5%
inhibition at 50 µM [5, 13]: 44.3%
Maximum (descriptive statistics of enzyme inhibition) [5]: 50.76
IC50 [5]: 36.4 ± 16.1 µM
Minimum (descriptive statistics of enzyme inhibition) [5]: 11.95
IC50 [6]: 74.3 ± 1.13 µM
IC50 [7]: 52.6 ± 0.69 µM
IC50 [8]: 98.9 ± 9 µM
IC50 [9]: 122 ± 1.34 µM
IC50 [10]: 34.6 ± 3.11 µM
